Results as given in US8206732B2, “Pyrithione biocides enhanced by silver, copper, or zinc ions” (Arch Chemicals, Inc., priority 1999, dated 2012).
“And” between values parts separate entries of the source, which are not always exact repeats. Equal entries are not always repeated.

Legend:
[1] = test system: Aspergillus niger ATCC 6275; assay: MIC in Tryptic Soy Broth, microtiter (Example 1); format: cell-based; conditions: 28° C.
[2] = test system: Fusarium sp.; assay: MIC in Tryptic Soy Broth, microtiter (Example 1); format: cell-based; conditions: TSB with 0.5 ppm Cu (II), 28° C., 5 days
Protocol: Equal volumes of bacterial suspension (10^6 bacteria per milliliter of TSB) containing Pseudomonas aeruginosa ATCC 9027 or fungal spore suspension (10^5 spores per milliliter of TSB) containing Aspergillus niger ATCC 6275 or species of Fusarium and Cephalosporium isolated from contaminated metalworking fluid were added to each microtiter plate well, and the plates were incubated at 28° C. Controls were prepared for cultures inoculated into TSB with and without Cu (II).

[3] = test system: Staphylococcus aureus ATCC 27217; assay: Zone of inhibition test (paper disc on TSA); format: cell-based; conditions: 6.5 mm discs; 0.135% pyrithione, 0.1% ZnCl2 or both; 28° C., 24 hr
[4] = test system: Pseudomonas aeruginosa NCIMB 6749; assay: Zone of inhibition test (paper disc on TSA); format: cell-based; conditions: 6.5 mm discs; 0.135% pyrithione, 0.1% ZnCl2 or both; 28° C., 24 hr
[5] = test system: Staphylococcus aureus ATCC 27217; assay: Checkerboard MIC test, pyrithiones with zinc salts; format: cell-based; conditions: pyrithione alone or pyrithione concentration in the inhibitory mixture; TSB, 28 C, 3 days
[6] = test system: Fusarium sp.; assay: Checkerboard MIC test, pyrithiones with zinc salts; format: cell-based; conditions: pyrithione alone or pyrithione concentration in the inhibitory mixture; TSB, 28 C, 5 days
Protocol: Mixtures of pyrithione and zinc or silver in various proportions were tested for relative efficacy by a modification of the procedure described by Dougherty, et al.
Equal volumes of bacteria (10^6 cells/ml) or fungi (10^5 spores/ml) were added to each microtiter plate well. The plates were incubated at 28 C for 3 days (bacteria) or 5 days (fungi), and the minimum inhibitory concentration (MIC) of biocide was determined. The Fractional Inhibitory Concentration (FIC=concentration of biocide in an inhibitory mixture divided by the MIC of the pure biocide) was determined, and the FIC Index (sum of the two FIC's) was calculated. The type of interaction was categorized according to the magnitude of the Index: Synergistic (<1), Additive (1), or Antagonistic (>1).

[7] = test system: Staphylococcus aureus 27217; assay: Checkerboard MIC test, pyrithiones with silver salts; format: cell-based; conditions: NaPT alone or in the inhibitory mixture with silver salt; TSB pH 7.3, 35° C., 1 to 2 days
[8] = test system: Escherichia coli 10536; assay: as above; format: cell-based; conditions: NaPT alone or in the inhibitory mixture with silver salt; TSB pH 7.3, 35° C., 1 to 2 days
[9] = test system: Pseudomonas aeruginosa 9027; assay: as above; format: cell-based; conditions: NaPT alone or in the inhibitory mixture with silver salt; TSB pH 7.3, 35° C., 1 to 2 days
[10] = test system: Candida albicans 10251; assay: as above; format: cell-based; conditions: NaPT alone or in the inhibitory mixture with silver salt; TSB pH 7.3, 35° C., 1 to 2 days
[11] = test system: P. aeruginosa 9027 free-living cells; assay: Viable free-living cells in bulk metalworking fluid (Example 5); format: cell-based, Pseudomonas aeruginosa; conditions: 100 PPM NaPT; for viable free-living cells in the bulk fluid: 5% soluble oil MWF, 2.5 PPM Zn(II) or both, 4 days
[12] = test system: P. aeruginosa 9027 biofilm; assay: Viable biofilm cells on discs in metalworking fluid (Example 5); format: cell-based, Pseudomonas aeruginosa; conditions: 100 PPM NaPT; for viable biofilm cells: 5% soluble oil MWF, 2.5 PPM Zn(II) or both, 4 days
[13] = test system: E. coli 8739 biofilm; assay: as above; format: cell-based, Escherichia coli; conditions: polycarbonate disc, 100 PPM NaPT, 10 PPM Zn (II) or both, 4 days after treatment
[14] = test system: mixed bacteria (Pseudomonas aeruginosa 9027, Escherichia coli 8739, Pseudomonas fluorescens 12201, Pseudomonas rubescens 12202, Pseudomonas putida); assay: Various mixtures of NaPT and Zn(II) against bacteria in 5% metalworking fluid (Example 8, Table 10a); format: cell-based, Pseudomonas spp.
[15] = test system: Fusarium sp. and Cephalosporium sp.; assay: Various mixtures of NaPT and Zn(II) against fungi in 5% metalworking fluid (Example 8, Table 10b); format: cell-based
[16] = semi-synthetic, NaPT 100 PPM, Day 1
[17] = semi-synthetic, NaPT 100 PPM, Day 1, tube of the Day 1/Day 4 series
[18] = semi-synthetic, NaPT 100 PPM, Day 2
[19] = semi-synthetic, NaPT 100 PPM, Day 4
[20] = semi-synthetic, NaPT 100 PPM, Day 7
[21] = semi-synthetic, NaPT 300 PPM, Day 1
[22] = semi-synthetic, NaPT 300 PPM, Day 2
[23] = semi-synthetic, NaPT 300 PPM, Day 7
[24] = semi-synthetic, NaPT 500 PPM, Day 2
[25] = semi-synthetic, NaPT 500 PPM, Day 7
[26] = soluble oil, NaPT 100 PPM, Day 1
[27] = soluble oil, NaPT 100 PPM, Day 1, tube of the Day 1/Day 4 series
[28] = soluble oil, NaPT 100 PPM, Day 2
[29] = soluble oil, NaPT 100 PPM, Day 4
[30] = soluble oil, NaPT 100 PPM, Day 7
[31] = soluble oil, NaPT 300 PPM, Day 1
[32] = soluble oil, NaPT 300 PPM, Day 2
[33] = soluble oil, NaPT 300 PPM, Day 7
[34] = soluble oil, NaPT 500 PPM, Day 2
[35] = soluble oil, NaPT 500 PPM, Day 7
[36] = synthetic, NaPT 100 PPM, Day 1, tube of the Day 1/Day 4 series

In the case of `[Na+].[O-][n+]1ccccc1[S-]` [NaPT, sodium pyrithione], the “MIC NaPT (with 0.5 ppm Cu)” value ([1]; TSB with 0.5 ppm Cu (II), 7-8 days) is reported as 8 ppm, the MIC ([1]; TSB, incubated 7-8 days, single agent (NaPT without Cu)) is reported as 128 ppm and the “MIC NaPT (with 0.5 ppm Cu)” value [2] is reported as 8 ppm. The “Zone of Inhibition” value [3] was 31 mm, the “Zone of Inhibition” value [4] was 8 mm and the “MIC Pyrithione” value [5] was 4 ppm. For the same compound, the “MIC Pyrithione” value [6] was 411 ppm, the “MIC NaPT” value [7] was 4 ppm and 8 ppm and the “MIC NaPT” value [8] was 16 ppm. The “MIC NaPT” value [9] was 256 ppm, the “MIC NaPT” value [10] was 16 ppm and the “viable free-living cells in the bulk fluid” value (“viable free-living cells” below) ([11]; tube with Polycarbonate surface) was 4.9 × 10^5 cells/ml. The “viable free-living cells” value ([11]; tube with Rubber surface) was 50 cells/ml, the “viable free-living cells” value ([11]; tube with Steel surface) was 3.5 × 10^6 cells/ml and the viable free-living microorganisms ([11]; 5% synthetic MWF, 10 PPM Zn (II) or both, 4 days after treatment) was 7.8 × 10^6 cells/ml and 7.0 × 10^5 cells/ml and 5.4 × 10^5 cells/ml. For the same compound, the viable biofilm microorganisms ([12]; 5% solub. oil MWF, polycarbonate disc, 10 PPM Zn (II) or both, 4 days after treatment) was 2.0 × 10^5 cells/cm^2 and 2.6 × 10^4 cells/cm^2, the viable biofilm cells ([12]; Polycarbonate surface) was 2.8 × 10^4 cells/cm^2 and the viable biofilm cells ([12]; Rubber surface) was 5.3 × 10^2 cells/cm^2. For the same compound, the viable biofilm cells ([12]; Steel surface) was 1.1 × 10^5 cells/cm^2, the viable biofilm microorganisms ([13]; 5% solub. oil MWF) was 1.6 × 10^5 cells/cm^2 and the viable biofilm microorganisms ([13]; 10% TSB) was 1.4 × 10^6 cells/cm^2. For the same compound, the Bacteria/ml [14, 16] was 1.8 × 10^5 Bacteria/ml, the Bacteria/ml [14, 17] was 1.7 × 10^4 Bacteria/ml and the Bacteria/ml [14, 18] was 1.9 × 10^5 Bacteria/ml. For the same compound, the Bacteria/ml [14, 19] was 1.2 × 10^4 Bacteria/ml, the Bacteria/ml [14, 20] was 510 Bacteria/ml and the Bacteria/ml [14, 21] was 1.2 × 10^5 Bacteria/ml. For the same compound, the Bacteria/ml [14, 22] was 0 Bacteria/ml, the Bacteria/ml [14, 23] was 0 Bacteria/ml and the Bacteria/ml [14, 24] was 0 Bacteria/ml. The Bacteria/ml [14, 25] was 0 Bacteria/ml, the Bacteria/ml [14, 26] was 2.4 × 10^5 Bacteria/ml and the Bacteria/ml [14, 27] was 5.9 × 10^6 Bacteria/ml. The Bacteria/ml [14, 28] was 6.0 × 10^3 Bacteria/ml, the Bacteria/ml [14, 29] was 1.5 × 10^6 Bacteria/ml and the Bacteria/ml [14, 30] was 2.0 × 10^4 Bacteria/ml. For the same compound, the Bacteria/ml [14, 31] was 7.1 × 10^4 Bacteria/ml, the Bacteria/ml [14, 32] was 9.0 × 10^3 Bacteria/ml and the Bacteria/ml [14, 33] was 0 Bacteria/ml. For the same compound, the Bacteria/ml [14, 34] was 450 Bacteria/ml, the Bacteria/ml [14, 35] was 0 Bacteria/ml and the Bacteria/ml ([14]; synthetic, NaPT 100 PPM, Day 1) was 2.9 × 10^6 Bacteria/ml. For the same compound, the Bacteria/ml [14, 36] was 2.1 × 10^6 Bacteria/ml, the Bacteria/ml ([14]; synthetic, NaPT 100 PPM, Day 2) was 1.7 × 10^5 Bacteria/ml and the Bacteria/ml ([14]; synthetic, NaPT 100 PPM, Day 4) was 2.0 × 10^5 Bacteria/ml. The Bacteria/ml ([14]; synthetic, NaPT 100 PPM, Day 7) was 1.5 × 10^4 Bacteria/ml, the Bacteria/ml ([14]; synthetic, NaPT 300 PPM, Day 1) was 5.0 × 10^4 Bacteria/ml and the Bacteria/ml ([14]; synthetic, NaPT 300 PPM, Day 2) was 4.0 × 10^3 Bacteria/ml. The Bacteria/ml ([14]; synthetic, NaPT 300 PPM, Day 7) was 0 Bacteria/ml, the Bacteria/ml ([14]; synthetic, NaPT 500 PPM, Day 1) was 1.2 × 10^5 Bacteria/ml and the Bacteria/ml ([14]; synthetic, NaPT 500 PPM, Day 2) was 1.0 × 10^3 Bacteria/ml. The Bacteria/ml ([14]; synthetic, NaPT 500 PPM, Day 7) was 50 Bacteria/ml, the Fungi/ml [15, 16] was 1.1 × 10^4 Fungi/ml and the Fungi/ml [15, 17] was 2.0 × 10^4 Fungi/ml. For the same compound, the Fungi/ml [15, 18] was 1.3 × 10^3 Fungi/ml, the Fungi/ml [15, 19] was 1.0 × 10^4 Fungi/ml and the Fungi/ml [15, 20] was 0 Fungi/ml. The Fungi/ml [15, 21] was 3.0 × 10^3 Fungi/ml, the Fungi/ml [15, 22] was 570 Fungi/ml and the Fungi/ml [15, 23] was 0 Fungi/ml. The Fungi/ml ([15]; semi-synthetic, NaPT 500 PPM, Day 1) was 9.0 × 10^3 Fungi/ml, the Fungi/ml [15, 24] was 300 Fungi/ml and the Fungi/ml [15, 25] was 0 Fungi/ml. The Fungi/ml [15, 26] was 3.2 × 10^4 Fungi/ml, the Fungi/ml [15, 27] was 3.6 × 10^4 Fungi/ml and the Fungi/ml [15, 28] was 2.9 × 10^4 Fungi/ml. For the same compound, the Fungi/ml [15, 29] was 2.9 × 10^4 Fungi/ml, the Fungi/ml [15, 30] was 1.5 × 10^4 Fungi/ml and the Fungi/ml [15, 31] was 1.7 × 10^4 Fungi/ml. The Fungi/ml [15, 32] was 1.0 × 10^4 Fungi/ml, the Fungi/ml [15, 33] was 560 Fungi/ml and the Fungi/ml ([15]; soluble oil, NaPT 500 PPM, Day 1) was 1.9 × 10^4 Fungi/ml. For the same compound, the Fungi/ml [15, 34] was 2.8 × 10^4 Fungi/ml, the Fungi/ml [15, 35] was 610 Fungi/ml and the Fungi/ml ([15]; synthetic, NaPT 100 PPM, Day 1) was 3.0 × 10^4 Fungi/ml. The Fungi/ml [15, 36] was 9.0 × 10^3 Fungi/ml, the Fungi/ml ([15]; synthetic, NaPT 100 PPM, Day 2) was 2.0 × 10^3 Fungi/ml and the Fungi/ml ([15]; synthetic, NaPT 100 PPM, Day 4) was 5.0 × 10^3 Fungi/ml. The Fungi/ml ([15]; synthetic, NaPT 100 PPM, Day 7) was 2.0 × 10^3 Fungi/ml, the Fungi/ml ([15]; synthetic, NaPT 300 PPM, Day 1) was 2.9 × 10^4 Fungi/ml and the Fungi/ml ([15]; synthetic, NaPT 300 PPM, Day 2) was 2.1 × 10^4 Fungi/ml. For the same compound, the Fungi/ml ([15]; synthetic, NaPT 300 PPM, Day 7) was 1.2 × 10^4 Fungi/ml, the Fungi/ml ([15]; synthetic, NaPT 500 PPM, Day 1) was 2.7 × 10^4 Fungi/ml and the Fungi/ml ([15]; synthetic, NaPT 500 PPM, Day 2) was 4.0 × 10^3 Fungi/ml. The Fungi/ml ([15]; synthetic, NaPT 500 PPM, Day 7) was 3.0 × 10^3 Fungi/ml.
